How the values were obtained:
Rat [1] = test: concentration in brain after dosing; details: 0.2 h; dosed: 2-Methyltetrahydrofuran; 40 mg/kg; iv; Male; Harlan Sprague Dawley
Rat [2] = test: concentration in brain after dosing; details: 4 h; dosed: 2-Methyltetrahydrofuran; 40 mg/kg; iv; Male; Harlan Sprague Dawley
Rat [3] = test: concentration in brain after dosing; details: 0.2 h; dosed: 2-Methyltetrahydrofuran; 40 mg/kg; iv; Male; Harlan Sprague Dawley; remark: listed apart in the source
Rat [4] = test: concentration in brain after dosing; details: 0.2 h; dosed: 2-Methyltetrahydrofuran; 40 mg/kg; iv; Male; Harlan Sprague Dawley; remark: listed apart in the source
Rat [5] = test: concentration in brain after dosing; details: 0.2 h; dosed: 2-Methyltetrahydrofuran; 40 mg/kg; iv; Male; Harlan Sprague Dawley; remark: listed apart in the source
Rat [6] = test: concentration in plasma after dosing; details: 0.2 h; dosed: 2-Methyltetrahydrofuran; 40 mg/kg; iv; Male; Harlan Sprague Dawley
Rat [7] = test: concentration in plasma after dosing; details: 0.75 h; dosed: 2-Methyltetrahydrofuran; 40 mg/kg; iv; Male; Harlan Sprague Dawley
Rat [8] = test: concentration in brain after dosing; details: 0.5 h; dosed: Fluorotelomer alcohol 8+2; 80 mg/kg; oral; Female; Harlan Sprague Dawley
Rat [9] = test: concentration in brain after dosing; details: 1 h; dosed: Fluorotelomer alcohol 8+2; 24 mg/kg; oral; Male; Harlan Sprague Dawley
Rat [10] = test: concentration in plasma after dosing; details: 192 h; dosed: 678-39-7; 12 mg/kg; iv; Male; F344
Rat [11] = test: concentration in plasma after dosing; details: 192 h; dosed: 678-39-7; 40 mg/kg; iv; Male; F344
Rat [12] = test: concentration in plasma after dosing; details: 192 h; dosed: 678-39-7; 40 mg/kg; iv; Male; F344; remark: listed apart in the source
Rat [13] = test: concentration in kidney after dosing; details: 12 h; dosed: Fluorotelomer alcohol 8+2; 80 mg/kg; oral; Female; Harlan Sprague Dawley
Rat [14] = test: concentration in kidney after dosing; details: 1 h; dosed: Fluorotelomer alcohol 8+2; 80 mg/kg; oral; Female; Harlan Sprague Dawley
Rat [15] = test: concentration in plasma after dosing; details: dosed: Fluorotelomer alcohol 8+2, 12 mg/kg, oral, Male, Harlan Sprague Dawley
Rat [16] = test: concentration in plasma after dosing; details: dosed: 678-39-7, 12 mg/kg, iv, Male, F344
Rat [17] = test: concentration in plasma after dosing; details: 24 h; dosed: Gemfibrozil; 100 mg/kg; oral; Male; Sprague-Dawley
Rat [18] = test: concentration in plasma after dosing; details: 4 h; dosed: Gemfibrozil; 50 mg/kg; oral; Male; Sprague-Dawley
Rat [19] = test: concentration in plasma after dosing; details: 6 h; dosed: Gemfibrozil; 4.29 mg/kg; oral; Male; Sprague-Dawley
Rat [20] = test: concentration in plasma after dosing; details: 0.25 h; dosed: Gemfibrozil; 4.29 mg/kg; oral; Male; Sprague-Dawley
Rat [21] = test: concentration in plasma after dosing; details: 10 min; dosed: Gemfibrozil; 50 mg/kg; oral; Male; Sprague-Dawley
Rat [22] = test: concentration in plasma after dosing; details: 10 h; dosed: Gemfibrozil; 4.29 mg/kg; oral; Male; Sprague-Dawley
Rat [23] = test: concentration in plasma after dosing; details: 0.5 h; dosed: Gemfibrozil; 50 mg/kg; oral; Male; Sprague-Dawley
Rat [24] = test: concentration in plasma after dosing; details: 15 h; dosed: Gemfibrozil; 4.29 mg/kg; oral; Male; Sprague-Dawley
Rat [25] = test: concentration in plasma after dosing; details: 5 min; dosed: Gemfibrozil; 4.29 mg/kg; oral; Male; Sprague-Dawley
Rat [26] = test: concentration in liver after dosing; details: 0.5 h; dosed: Perfluorohexanoic Acid; 80 mg/kg; oral; Female; Harlan Sprague Dawley
Rat [27] = test: concentration in brain after dosing; details: 0.5 h; dosed: Perfluorohexanoic Acid; 80 mg/kg; oral; Female; Harlan Sprague Dawley
Rat [28] = test: concentration in plasma after dosing; details: dosed: Perfluorohexanoic Acid, 40 mg/kg, oral, Male, Harlan Sprague Dawley
Rat [29] = test: concentration in plasma after dosing; details: 1 h; dosed: Perfluorohexanoic Acid; 40 mg/kg; iv; Male; F344
Rat [30] = test: concentration in plasma after dosing; details: 0.75 h; dosed: Perfluorohexanoic Acid; 80 mg/kg; oral; Male; Harlan Sprague Dawley
Rat [31] = test: concentration in plasma after dosing; details: dosed: Perfluorohexanoic Acid, 40 mg/kg, iv, Male, F344
Rat [32] = test: concentration in plasma after dosing; details: dosed: Perfluorohexanoic Acid, 40 mg/kg, oral, Male, Harlan Sprague Dawley; remark: listed apart in the source
Rat [33] = test: concentration in liver after dosing; details: 864 h; dosed: Perfluorooctane Sulfonate; 20 mg/kg; oral; Male; Harlan Sprague Dawley
Rat [34] = test: concentration in brain after dosing; details: 24 h; dosed: Perfluorooctane Sulfonate; 2 mg/kg; oral; Female; Harlan Sprague Dawley
Rat [35] = test: concentration in brain after dosing; details: 24 h; dosed: Perfluorooctane Sulfonate; 2 mg/kg; oral; Female; Harlan Sprague Dawley; remark: listed apart in the source
Rat [36] = test: concentration in liver after dosing; details: 3360 h; dosed: Perfluorooctane Sulfonate; 20 mg/kg; oral; Male; Harlan Sprague Dawley
Rat [37] = test: concentration in kidney after dosing; details: 24 h; dosed: Perfluorooctane Sulfonate; 20 mg/kg; oral; Female; F344
Rat [38] = test: concentration in plasma after dosing; details: 1848 h; dosed: Perfluorooctane Sulfonate; 2 mg/kg; oral; Female; Harlan Sprague Dawley
Rat [39] = test: concentration in plasma after dosing; details: 6 h; dosed: Perfluorooctane Sulfonate; 2 mg/kg; oral; Female; Harlan Sprague Dawley
Rat [40] = test: concentration in kidney after dosing; details: 1848 h; dosed: Perfluorooctane Sulfonate; 20 mg/kg; oral; Male; Harlan Sprague Dawley
Rat [41] = test: concentration in kidney after dosing; details: 24 h; dosed: Perfluorooctane Sulfonate; 2 mg/kg; oral; Female; Harlan Sprague Dawley
Rat [42] = test: concentration in kidney after dosing; details: 864 h; dosed: Perfluorooctane Sulfonate; 20 mg/kg; oral; Male; Harlan Sprague Dawley

Question: `CC1CCCO1` (configuration not stated) [2-Methyltetrahydrofuran] was tested. Which concentration in brain (Rat [1]) did it give?
Answer: Its concentration in brain is 30800 ng/mL.

Question: And the concentration in brain (Rat [2])?
Answer: Its concentration in brain is 184 ng/mL.

Question: And the concentration in brain (Rat [3])?
Answer: Its concentration in brain is 24900 ng/mL.

Question: And the concentration in brain (Rat [4])?
Answer: The concentration in brain was 24100 ng/mL.

Question: And the concentration in brain (Rat [5])?
Answer: Its concentration in brain is 26500 ng/mL.

Question: What about the concentration in plasma (Rat [6]) of the same molecule?
Answer: Its concentration in plasma is 36100 ng/mL.

Question: What about the concentration in plasma (Rat [7]) of the same molecule?
Answer: The concentration in plasma was 26900 ng/mL.

Question: Which concentration in brain (Rat [8]) does the source give for `O=C(O)CCC(F)(F)C(F)(F)C(F)(F)C(F)(F)C(F)(F)C(F)(F)C(F)(F)F` [Fluorotelomer acid 7+3] here?
Answer: Its concentration in brain is 152 ng/g.

Question: What about the concentration in brain (Rat [9]) of the same molecule?
Answer: Its concentration in brain is 160 ng/g.

Question: What about the concentration in plasma (Rat [10]) of the same molecule?
Answer: The concentration in plasma was 13.6 ng/mL.

Question: And the concentration in plasma (Rat [11])?
Answer: Its concentration in plasma is 49.7 ng/mL.

Question: What about the concentration in plasma (Rat [12]) of the same molecule?
Answer: Its concentration in plasma is 48.1 ng/mL.

Question: And the concentration in kidney (Rat [13])?
Answer: Its concentration in kidney is 3110 ng/g.

Question: And the concentration in kidney (Rat [14])?
Answer: Its concentration in kidney is 584 ng/g.

Question: What about the concentration in plasma (Rat [15]; 0.25 h) of the same molecule?
Answer: The concentration in plasma was 41.6 ng/mL.

Question: What about the concentration in plasma (Rat [15]; 6 h) of the same molecule?
Answer: The concentration in plasma was 841 ng/mL.

Question: What about the concentration in plasma (Rat [16]; 0.25 h) of the same molecule?
Answer: Its concentration in plasma is 37 ng/mL.

Question: And the concentration in plasma (Rat [16]; 24 h)?
Answer: Its concentration in plasma is 183 ng/mL.

Question: With `Cc1ccc(C)c(OCCCC(C)(C)C(=O)O)c1` [Gemfibrozil] as the molecule, how does the concentration in plasma (Rat [17]) read?
Answer: The concentration in plasma was 761 ng/mL.

Question: What about the concentration in plasma (Rat [18]) of the same molecule?
Answer: Its concentration in plasma is 5620 ng/mL.

Question: What about the concentration in plasma (Rat [19]) of the same molecule?
Answer: Its concentration in plasma is 388 ng/mL.

Question: And the concentration in plasma (Rat [20])?
Answer: Its concentration in plasma is 1640 ng/mL.

Question: And the concentration in plasma (Rat [21])?
Answer: Its concentration in plasma is 76500 ng/mL.

Question: What about the concentration in plasma (Rat [22]) of the same molecule?
Answer: Its concentration in plasma is 189 ng/mL.

Question: What about the concentration in plasma (Rat [23]) of the same molecule?
Answer: The concentration in plasma was 7800 ng/mL.

Question: And the concentration in plasma (Rat [24])?
Answer: The concentration in plasma was 285 ng/mL.

Question: What about the concentration in plasma (Rat [25]) of the same molecule?
Answer: Its concentration in plasma is 485 ng/mL.

Question: Which concentration in liver (Rat [26]) does the source give for `O=C(O)C(F)(F)C(F)(F)C(F)(F)C(F)(F)C(F)(F)F` [Perfluorohexanoic Acid] here?
Answer: Its concentration in liver is 24900 ng/g.

Question: What about the concentration in brain (Rat [27]) of the same molecule?
Answer: Its concentration in brain is 1270 ng/g.

Question: What about the concentration in plasma (Rat [28]; 0.25 h) of the same molecule?
Answer: The concentration in plasma was 44500 ng/mL.

Question: What about the concentration in plasma (Rat [28]; 6 h) of the same molecule?
Answer: The concentration in plasma was 26700 ng/mL.

Question: What about the concentration in plasma (Rat [29]) of the same molecule?
Answer: The concentration in plasma was 3100 ng/mL.

Question: And the concentration in plasma (Rat [30])?
Answer: The concentration in plasma was 134000 ng/mL.

Question: And the concentration in plasma (Rat [31]; 5 min)?
Answer: Its concentration in plasma is 23100 ng/mL.

Question: And the concentration in plasma (Rat [31]; 3 h)?
Answer: The concentration in plasma was 3900 ng/mL.

Question: What about the concentration in plasma (Rat [32]; 1 h) of the same molecule?
Answer: Its concentration in plasma is 51400 ng/mL.

Question: What about the concentration in plasma (Rat [32]; 24 h) of the same molecule?
Answer: The concentration in plasma was 2400 ng/mL.

Question: What does the source list for `O=S(=O)([O-])C(F)(F)C(F)(F)C(F)(F)C(F)(F)C(F)(F)C(F)(F)C(F)(F)C(F)(F)F` [Perfluorooctane Sulfonate]?
Answer: concentration in liver (Rat [33]): 97500 ng/g; concentration in brain (Rat [34]): 553 ng/g; concentration in brain (Rat [35]): 851 ng/g; concentration in liver (Rat [36]): 29800 ng/g; concentration in kidney (Rat [37]): 127000 ng/g; concentration in plasma (Rat [38]): 987 ng/mL; concentration in plasma (Rat [39]): 4920 ng/mL; concentration in kidney (Rat [40]): 10200 ng/g; concentration in kidney (Rat [41]): 5720 ng/g; concentration in kidney (Rat [42]): 17800 ng/g
